We go through 21 molecules from ChEMBL document CHEMBL1125711, “Flavins as potential antimalarials. 2. 3-Methyl-10-(substituted-phenyl) flavins” (J Med Chem, 1991).

Common to all, as to format: functional
In test [1] the test system is Mus musculus. As to the kind of experiment: Antimalarial activity was evaluated against Plasmodium vinckei V52 after intraperitoneal administration at dose 15 mg/kg.
For test [2], the system named is Mus musculus. As to the kind of experiment: Antimalarial activity was evaluated against Plasmodium vinckei vinckei V52 after intraperitoneal administration at dose 25 mg/kg.
For test [3], the species on record is Mus musculus. As to the kind of experiment: Effective dose required to obtain a parasitaemia of 40% 48 hours after treatment in mice.
The test system of test [4] is Plasmodium vinckei vinckei. As to the kind of experiment: Increase in mean survival days of Plasmodium inoculated mice (Mus musculus) after 70 mg/Kg intraperitoneal dose.
For test [5], the system named is Mus musculus. As to the kind of experiment: Antimalarial activity was evaluated against Plasmodium vinckei vinckei V52 after intraperitoneal administration at dose 40 mg/kg.
Test [6] deals with Plasmodium vinckei vinckei. As to the kind of experiment: Antimalarial activity against Plasmodium vinckei V52 after 20 mg/kg intraperitoneal dose.
Test [7] has as its system Mus musculus. As to the kind of experiment: Antimalarial activity was evaluated against Plasmodium vinckei V52 after intraperitoneal administration at dose 70 mg/kg.
Test [8] relates to Plasmodium vinckei vinckei. As to the kind of experiment: Antimalarial activity against Plasmodium vinckei V52 on 10 mg/kg intraperitoneal dose.
The subject of test [9] is Plasmodium vinckei vinckei. As to the kind of experiment: Antimalarial activity against Plasmodium vinckei V52 on 30 mg/kg intraperitoneal dose.
Test [10] relates to Mus musculus. As to the kind of experiment: Increase in mean survival days was determined in mice after ip administration of 30 mg/kg. The settings on record: route intraperitoneal.
The test system of test [11] is Mus musculus. As to the kind of experiment: Increase in mean survival days was determined in mice after ip administration of 50 mg/kg. The settings on record: route intraperitoneal.
For test [12], the system named is Mus musculus. As to the kind of experiment: Increase in mean survival days was determined in mice after ip administration of 10 mg/kg. The note with it: route intraperitoneal.
In test [13] the test system is Mus musculus. As to the kind of experiment: Antimalarial activity was evaluated against Plasmodium vinckei V52 after intraperitoneal administration at dose 50 mg/kg.
Test [14] has as its system Plasmodium vinckei vinckei. As to the kind of experiment: Antimalarial activity against Plasmodium vinckei V52 on 70 mg/kg intraperitoneal dose.
For test [15], the system named is Mus musculus. As to the kind of experiment: Increase in mean survival days was determined in mice after ip administration of 20 mg/kg. The settings on record: route intraperitoneal.
The subject of test [16] is Mus musculus. As to the kind of experiment: Increase in mean survival days was determined in mice after ip administration of 30 mg/kg; toxic. The settings on record: route intraperitoneal.
Test [17] relates to Mus musculus. As to the kind of experiment: Increase in mean survival days was determined in mice after ip administration of 70 mg/kg; toxic. The note with it: route intraperitoneal.
The test system of test [18] is Mus musculus. As to the kind of experiment: Increase in mean survival days was determined in mice after ip administration of 25 mg/kg; toxic. The settings on record: route intraperitoneal.
For test [19], the system named is Mus musculus. As to the kind of experiment: Increase in mean survival days was determined in mice after ip administration of 15 mg/kg. The settings on record: route intraperitoneal.
Test [20] deals with Mus musculus. As to the kind of experiment: Antimalarial activity was evaluated against Plasmodium vinckei V52 after intraperitoneal administration at dose 60 mg/kg.
For test [21], the system named is Mus musculus. As to the kind of experiment: Antimalarial activity was evaluated against Plasmodium vinckei vinckei V52 after intraperitoneal administration at dose 50 mg/kg.
The subject of test [22] is Mus musculus. As to the kind of experiment: Antimalarial activity was evaluated against Plasmodium vinckei V52 after intraperitoneal administration at dose 25 mg/kg.
Test [23] has as its system Mus musculus. As to the kind of experiment: Increase in mean survival days was determined in mice after ip administration of 60 mg/kg. The settings on record: route intraperitoneal.
The test system of test [24] is Mus musculus. As to the kind of experiment: Antimalarial activity was evaluated against Plasmodium vinckei V52 after intraperitoneal administration at dose 30 mg/kg.
Test [25] deals with Mus musculus. As to the kind of experiment: Antimalarial activity was evaluated against Plasmodium vinckei V52 after intraperitoneal administration at dose 10 mg/kg.

`Cn1c(=O)nc2n(-c3cc(Cl)cc(Cl)c3)c3ccccc3nc-2c1=O`: the Cured in the test on Mus musculus [1] stood at 100%; in the test on Mus musculus [2], 100%; in the test with Mus musculus [5], 100%; in [6], 100%; in the test with Mus musculus [7], 60%; in test [8], 100%. Besides, the Cured in test [9] is on record as 100%. Also, in the test filed under Mus musculus [3], the ED40 is 40.2 µmol/kg. Moreover, the Mean survival days in test [4] is 16.5 days.
Consider `Cc1ccc(-n2c3nc(=O)n(C)c(=O)c-3nc3ccccc32)cc1`, for which the Mean survival days in test [4] stood at 0 days; in the test with Mus musculus [10], 0.2 days; in the test on Mus musculus [11] it was 0.3 days; in the test on Mus musculus [12], 0 days. The Cured (with Mus musculus [7]; in test [8]; in test [9]; with Mus musculus [13]) was 0% in each case.
`CSc1cccc(-n2c3nc(=O)n(C)c(=O)c-3nc3ccccc32)c1`: the Cured in test [14], in test [6], in test [8] and in [9] was 0% throughout. In addition, the Mean survival days in test [4] is 0 days; with Mus musculus [10], 0 days; with Mus musculus [12], 0.2 days; with Mus musculus [15], 0 days.
In the case of `CSc1ccc(-n2c3nc(=O)n(C)c(=O)c-3nc3ccccc32)cc1`, the Cured in [14], in test [6], in [8] and in [9] was 0% in each case. Further, the Mean survival days in test [4] worked out at 0 days; in the test with Mus musculus [10] it was 0.5 days; with Mus musculus [12], 0.2 days; in the test on Mus musculus [15] it was 0.5 days.
For `Cn1c(=O)nc2n(-c3ccc(Cl)cc3F)c3ccccc3nc-2c1=O`, the results for the Mean survival days in the test on Mus musculus [16], with Mus musculus [12] and with Mus musculus [15] were -2 days, 1 days and 4 days, respectively. Moreover, the Cured in test [6], in test [8] and in test [9] was 0% in each case.
As to `CCc1ccc(-n2c3nc(=O)n(C)c(=O)c-3nc3ccccc32)cc1`, the Cured in [14], in test [6], in test [8] and in test [9] was 0% throughout. Moreover, the ED40 in the test filed under Mus musculus [3] was 281 µmol/kg. The Mean survival days in test [4] is -0.4 days; in the test on Mus musculus [10] it was 0 days; with Mus musculus [12], 0.2 days; with Mus musculus [15], 0.3 days.
As for `Cn1c(=O)nc2n(-c3ccc(C(=O)O)cc3)c3ccccc3nc-2c1=O`, the Cured in test [14], in test [8] and in test [9] was 0% throughout. The Mean survival days in test [4] is -0.2 days; in the test on Mus musculus [10], 0.2 days; in the test on Mus musculus [12], 0 days.
For `Cn1c(=O)nc2n(-c3ccc(F)c(F)c3)c3ccccc3nc-2c1=O`, the Cured in test [14], in test [6], in test [8] and in test [9] was 0% throughout. The Mean survival days in the test with Mus musculus [17] is -1 days; in the test on Mus musculus [10] it was 0 days; in the test on Mus musculus [12] it was 0 days; in the test on Mus musculus [15] it was -0.5 days.
In the case of `Cc1ccc(-n2c3nc(=O)n(C)c(=O)c-3nc3ccccc32)cc1Cl`, the Cured in test [14], in [6] and in [8] was 0% throughout. Also, the ED40 in the test listed under Mus musculus [3] amounted to 456 µmol/kg. Also, the Mean survival days (in test [4]; in the test on Mus musculus [10]; in the test with Mus musculus [12]) was 0 days each time.
For `Cn1c(=O)nc2n(-c3ccccc3Cl)c3ccccc3nc-2c1=O`, the Cured in [14], in [8] and in [9] was 0% in each case. Also, the Mean survival days in the test with Mus musculus [17] is -2 days; with Mus musculus [16], -0.3 days; in the test on Mus musculus [12] it was 0 days.
For the molecule `Cn1c(=O)nc2n(-c3ccc(Cl)cc3Cl)c3ccccc3nc-2c1=O`, the Cured (in the test with Mus musculus [1]; in the test on Mus musculus [2]; in test [8]; in test [9]) was 0% in each case. In addition, the Mean survival days in the test with Mus musculus [16] is -1 days; in the test with Mus musculus [12], 1.7 days; in the test on Mus musculus [18] it was -1.2 days; in the test on Mus musculus [19], 0.5 days.
For `COc1cccc(-n2c3nc(=O)n(C)c(=O)c-3nc3ccccc32)c1`, the Cured in test [14], in [6], in test [8] and in [9] was 0% throughout. Besides, the Mean survival days (in test [4]; in the test with Mus musculus [10]; in the test with Mus musculus [12]; with Mus musculus [15]) was 0 days throughout.
As for `CN(C)c1ccc(-n2c3nc(=O)n(C)c(=O)c-3nc3ccccc32)cc1`, the Cured in test [14], in test [6] and in test [8] was 0% each time. The Mean survival days (in test [4]; in the test with Mus musculus [10]; in the test on Mus musculus [12]) was 0 days throughout.
Turning to `Cn1c(=O)nc2n(-c3ccc(C(F)(F)F)cc3)c3ccccc3nc-2c1=O`, the Cured in [14] is 100%; in test [6], 0%; in the test on Mus musculus [20], 100%; in test [8] it was 0%; in [9], 80%; in the test with Mus musculus [13] it was 100%. The molecule further returned an ED40 in the test filed under Mus musculus [3] of 135 µmol/kg. Besides, the Mean survival days in the test with Mus musculus [10] is 2 days; in the test with Mus musculus [12], 0 days; in the test on Mus musculus [15] it was 0 days.
For `Cn1c(=O)nc2n(-c3ccc(Cl)c(Cl)c3)c3ccccc3nc-2c1=O`, the Cured (with Mus musculus [21]; in [6]; with Mus musculus [7]; in [8]) was 0% throughout. Besides, the Mean survival days (in [4]; with Mus musculus [10]; with Mus musculus [11]; with Mus musculus [12]) was 0 days throughout.
As for `Cn1c(=O)nc2n(-c3ccc(O)cc3)c3ccccc3nc-2c1=O`, the Cured in test [14], in [6] and in test [8] was 0% throughout. Also, the results for the Mean survival days (in test [4]; in the test with Mus musculus [10]; with Mus musculus [12]) were 0 days, 0.2 days and 0 days, respectively.
For the molecule `Cn1c(=O)nc2n(-c3cc(C(F)(F)F)ccc3Cl)c3ccccc3nc-2c1=O`, the Cured (in the test on Mus musculus [1]; in the test with Mus musculus [22]; in test [6]; in test [8]; in test [9]) was 0% each time. Further, the Mean survival days was -0.4 days in the test on Mus musculus [16]; 0 days in the test on Mus musculus [12]; 0 days in the test on Mus musculus [18]; 0.2 days in the test with Mus musculus [19]; 0 days in the test on Mus musculus [15].
Regarding `Cc1cc(Cl)ccc1-n1c2nc(=O)n(C)c(=O)c-2nc2ccccc21`, the Cured (with Mus musculus [2]; in test [6]; in test [8]; in [9]) was 0% each time. Besides, the Mean survival days in the test on Mus musculus [16] is -2 days; in the test with Mus musculus [12], 0 days; in the test on Mus musculus [18] it was -1.5 days; with Mus musculus [15], 1.2 days.
For `Cn1c(=O)nc2n(-c3ccc(Cl)c(C(F)(F)F)c3)c3ccccc3nc-2c1=O`, the Cured (in [14]; in the test on Mus musculus [1]; in test [6]; in test [8]; in test [9]) was 0% each time. Further, the Mean survival days in test [4] stood at 0.2 days; in the test with Mus musculus [10] it was 0 days; in the test with Mus musculus [12], 0 days; in the test on Mus musculus [19], 0 days; in the test with Mus musculus [15] it was 0 days.
As for `Cn1c(=O)nc2n(-c3cccc(Cl)c3)c3ccccc3nc-2c1=O`, the Cured is on record as 100% in [14]; 50% in the test with Mus musculus [20]; 0% in test [8]; 0% in test [9]; 0% in the test with Mus musculus [13]. The Mean survival days with Mus musculus [23] was found to be 0.5 days; in the test on Mus musculus [10], 0 days; in the test on Mus musculus [11], 0.4 days; with Mus musculus [12], 0 days.
On to `Cn1c(=O)nc2n(-c3ccc(C#N)cc3)c3ccccc3nc-2c1=O`, for which the Cured with Mus musculus [24], with Mus musculus [25] and with Mus musculus [7] was 0% each time. The Mean survival days (in [4]; in the test with Mus musculus [10]; in the test on Mus musculus [12]) was 0 days in each case.
